Test results published in patent US9783505B2, “Substituted diaminopyrimidyl compounds, compositions thereof, and methods of treatment therewith” (Signal Pharmaceuticals, LLC, priority 2013, dated 2017).
pIC50: −log10 of the molar value.

Columns and labels:
His-PKC-theta = target: T1, His-PKC-theta (Homo sapiens, UniProt Q04759); experiment: PKC-theta Assay (384-well time resolved fluorescence, IMAP TR-FRET); type: biochemical; details: read-out: Act. Level (IC50 in the PKC-theta Assay)
T1 construct: His; purchased Invitrogen
T1 sequence (Q04759 whole entry): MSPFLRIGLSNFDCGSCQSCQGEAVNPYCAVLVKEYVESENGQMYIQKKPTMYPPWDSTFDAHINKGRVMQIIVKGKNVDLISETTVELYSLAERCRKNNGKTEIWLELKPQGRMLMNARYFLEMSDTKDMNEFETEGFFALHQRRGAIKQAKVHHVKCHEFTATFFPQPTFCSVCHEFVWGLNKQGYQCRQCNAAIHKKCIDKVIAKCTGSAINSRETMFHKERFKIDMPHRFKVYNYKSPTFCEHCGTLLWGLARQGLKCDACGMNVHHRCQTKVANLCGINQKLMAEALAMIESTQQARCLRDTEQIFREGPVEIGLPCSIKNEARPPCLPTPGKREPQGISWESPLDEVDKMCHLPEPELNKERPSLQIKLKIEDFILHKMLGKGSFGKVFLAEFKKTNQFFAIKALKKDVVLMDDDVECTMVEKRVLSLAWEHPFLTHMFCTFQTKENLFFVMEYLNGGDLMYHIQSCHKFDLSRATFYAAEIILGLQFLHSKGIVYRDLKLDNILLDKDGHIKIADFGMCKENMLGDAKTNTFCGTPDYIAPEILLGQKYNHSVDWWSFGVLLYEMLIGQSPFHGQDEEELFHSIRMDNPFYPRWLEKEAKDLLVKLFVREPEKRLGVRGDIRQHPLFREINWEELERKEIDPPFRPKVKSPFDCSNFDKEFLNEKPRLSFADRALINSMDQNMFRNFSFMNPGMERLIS
Summary of the method: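 Fam-labeled S6-derived peptide (200 nM) and 10 μM ATP were reacted with 142 pM enzyme for 2 h at room temperature in HEPES pH 7.6 buffer with MgCl2, DTT, Triton X-100, BSA and EDTA. The reaction was stopped with IMAP progressive binding reagent plus Tb donor, incubated overnight, then TR-FRET read.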

PKC delta = target: T2, PKC delta (Homo sapiens, UniProt Q05655); experiment: PKC delta Assay (384-well time resolved fluorescence, IMAP TR-FRET); type: biochemical; details: selectivity for PKC-theta over PKC-delta
T2 construct: purchased Invitrogen
T2 sequence (Q05655 whole entry): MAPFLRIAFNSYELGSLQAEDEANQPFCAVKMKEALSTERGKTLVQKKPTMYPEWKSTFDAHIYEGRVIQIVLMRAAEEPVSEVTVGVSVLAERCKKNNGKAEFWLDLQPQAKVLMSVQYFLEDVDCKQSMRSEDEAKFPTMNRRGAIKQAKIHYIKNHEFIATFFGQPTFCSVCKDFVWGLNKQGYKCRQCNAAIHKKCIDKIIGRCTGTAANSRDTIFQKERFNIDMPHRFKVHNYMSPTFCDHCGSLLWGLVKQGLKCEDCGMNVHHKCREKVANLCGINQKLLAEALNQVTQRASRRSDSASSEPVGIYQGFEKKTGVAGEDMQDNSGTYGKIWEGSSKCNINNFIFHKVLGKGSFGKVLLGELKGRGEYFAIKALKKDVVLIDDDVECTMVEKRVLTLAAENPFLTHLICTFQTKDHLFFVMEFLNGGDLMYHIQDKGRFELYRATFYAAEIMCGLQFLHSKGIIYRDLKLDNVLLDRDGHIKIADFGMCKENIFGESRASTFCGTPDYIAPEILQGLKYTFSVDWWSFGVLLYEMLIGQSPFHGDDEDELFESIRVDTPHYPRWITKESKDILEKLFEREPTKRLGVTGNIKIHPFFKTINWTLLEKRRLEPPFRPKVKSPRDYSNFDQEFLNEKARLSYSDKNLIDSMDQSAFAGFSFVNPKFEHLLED
Description: PKC delta Assay. A 384-well time resolved fluorescence assay was used to monitor PKC delta activity. The PKC delta assay was run in the following assay buffer: 50 mM HEPES pH 7.6, 10 mM MgCl2, 1 mM DTT, 0.01% Triton X-100, 0.01% BSA and 0.1 mM EDTA. To initiate the reaction, 200 nM of Fam-labeled S6-derived peptide (Molecular Devices) and 10 μM of ATP were mixed with 1.5 nM of PKC delta (Invitrogen), for a total assay volume of 25 μL in each well. The assay was incubated at room temperature for 2 hours and terminated using a 60 μL/well mixture of Detection Binding Solution: 70% IMAP Progressive Binding Buffer A, 30% IMAP Progressive Binding Buffer B, 1:600 Progressive Binding Reagent, and 1:400 TR-FRET Tb Donor (Molecular Devices). The assay plates were then incubated overnight at room temperature and read on the Perkin-Elmer Envision Reader.

Row | SMILES | pIC50 (His-PKC-theta) | Sel. Level (ratio of IC50 PKC-delta/IC50 PKC-theta) (PKC delta)
1 | CC1(C)C[C@H](Nc2nc(NCCc3noc(C(F)(F)F)n3)ncc2C#N)CC[C@@H]1O [Cmpd 219] | 5.70 to 6.10 | G (selectivity between 5- and 20-fold (selectivity level G))
2 | N#Cc1cnc(NCCc2c[nH]c3cnccc23)nc1N[C@H]1CC[C@@H](C(N)=O)CC1 [Cmpd 320] | 6.10 to 7.00 | F (selectivity of between 20- and 100-fold (selectivity level F))
3 | Cc1ncccc1CCNc1ncc(C#N)c(N[C@H]2CC[C@@H](C(N)=O)CC2)n1 [Cmpd 322] | 6.10 to 7.00 | G (selectivity between 5- and 20-fold (selectivity level G))
4 | CC1(C)C[C@H](Nc2nc(NCCc3ccon3)ncc2C#N)CC[C@@H]1O [Cmpd 220] | 5.70 to 6.10 | G (selectivity between 5- and 20-fold (selectivity level G))
5 | CC1(C)C[C@H](Nc2nc(NCCc3ccnc(C(F)(F)F)c3)ncc2C#N)CC[C@@H]1O [Cmpd 272] | 6.10 to 7.00 | G (selectivity between 5- and 20-fold (selectivity level G))
6 | CC(F)(F)COc1ncncc1CNc1ncc(C#N)c(N[C@H]2CCC[C@](C)(O)C2)n1 [Cmpd 285] | 5.00 to 5.70 | H (selectivity level of 5-fold or less (selectivity level H))
7 | Cc1cc(C(F)(F)F)nn1CCNc1ncc(C#N)c(N[C@@H]2CC(O)C2(C)C)n1 (stereo partly drawn) [Cmpd 225] | 5.00 to 5.70 | H (selectivity level of 5-fold or less (selectivity level H))
8 | CC1(C)C[C@H](Nc2nc(NCCc3cnoc3)ncc2C#N)CC[C@@H]1O [Cmpd 222] | 5.70 to 6.10 | G (selectivity between 5- and 20-fold (selectivity level G))
9 | Cc1cccc(CCNc2ncc(C#N)c(N[C@@H]3C[C@H](O)C3(C)C)n2)n1 [Cmpd 262] | 5.00 to 5.70 | H (selectivity level of 5-fold or less (selectivity level H))
10 | CC1(C)C[C@H](Nc2nc(NCCc3cccnc3)ncc2C#N)CC[C@@H]1O [Cmpd 281] | 5.70 to 6.10 | G (selectivity between 5- and 20-fold (selectivity level G))
11 | CC1(C)[C@@H](C(N)=O)C[C@H]1Nc1nc(NCCC2C(=O)Nc3ccccc32)ncc1C#N (stereo partly drawn) [Cmpd 318] | > 7.00 | E (selectivity (Sel. Level=ratio of IC50 PKC-delta/IC50 PKC-theta) of >100-fold (selectivity level E))
12 | CCOc1cc(CCNc2ncc(C#N)c(N[C@@H]3CC[C@H](O)C(C)(C)C3)n2)ccn1 [Cmpd 330] | 6.10 to 7.00 | G (selectivity between 5- and 20-fold (selectivity level G))
13 | CC1(C)[C@@H](O)C[C@H]1Nc1nc(NCCC2C(=O)Nc3ccccc32)ncc1C#N (stereo partly drawn) [Cmpd 259] | > 7.00 | E (selectivity (Sel. Level=ratio of IC50 PKC-delta/IC50 PKC-theta) of >100-fold (selectivity level E))
14 | CC1(C)C[C@H](Nc2nc(NCCc3ccc(OCC(F)(F)F)nc3)ncc2C#N)CC[C@@H]1O [Cmpd 253] | 6.10 to 7.00 | F (selectivity of between 20- and 100-fold (selectivity level F))
15 | CC1(C)[C@@H](O)C[C@H]1Nc1nc(NCCc2ncon2)ncc1C#N [Cmpd 230] | 5.00 to 5.70 | H (selectivity level of 5-fold or less (selectivity level H))
16 | CC1(C)C[C@H](Nc2nc(NCCc3c[nH]c4ncccc34)ncc2C#N)CC[C@@H]1O [Cmpd 204] | 6.10 to 7.00 | F (selectivity of between 20- and 100-fold (selectivity level F))
17 | CCc1ccc2c(c1)C(CCNc1ncc(C#N)c(N[C@@H]3CC[C@H](O)C(C)(C)C3)n1)C(=O)N2 (stereo partly drawn) [Cmpd 249] | > 7.00 | E (selectivity (Sel. Level=ratio of IC50 PKC-delta/IC50 PKC-theta) of >100-fold (selectivity level E))
18 | CC1(C)[C@@H](O)CCC[C@H]1Nc1nc(NCCC2C(=O)Nc3ccc(F)cc32)ncc1C#N (stereo partly drawn) [Cmpd 316] | > 7.00 | F (selectivity of between 20- and 100-fold (selectivity level F))

Row | SMILES | pIC50 (His-PKC-theta) | Sel. Level (ratio of IC50 PKC-delta/IC50 PKC-theta) (PKC delta)
19 | CC1(C)C[C@H](Nc2nc(NCCc3ccc4ccccc4n3)ncc2C#N)CC[C@@H]1O [Cmpd 256] | 5.70 to 6.10 | G (selectivity between 5- and 20-fold (selectivity level G))
20 | CC(F)(F)COc1ncncc1CNc1ncc(C#N)c(N[C@H]2CC3(C2)C[C@](C)(O)C3)n1 (stereo partly drawn) [Cmpd 295] | 6.10 to 7.00 | F (selectivity of between 20- and 100-fold (selectivity level F))
21 | CN1C(=O)C(CCNc2ncc(C#N)c(N[C@@H]3C[C@H](C(N)=O)C3(C)C)n2)c2ccccc21 (stereo partly drawn) [Cmpd 325] | 6.10 to 7.00 | F (selectivity of between 20- and 100-fold (selectivity level F))
22 | CC1(C)[C@@H](O)C[C@H]1Nc1nc(NCCc2cnoc2)ncc1C#N [Cmpd 246] | 5.00 to 5.70 | H (selectivity level of 5-fold or less (selectivity level H))
23 | CC1(C)[C@@H](Nc2nc(NCCC3C(=O)Nc4ccccc43)ncc2C#N)CCC[C@@H]1O (stereo partly drawn) [Cmpd 305] | 6.10 to 7.00 | G (selectivity between 5- and 20-fold (selectivity level G))
24 | CC1(C)[C@@H](O)C[C@H]1Nc1nc(NCCc2c[nH]c3ccccc23)ncc1C#N [Cmpd 240] | > 7.00 | G (selectivity between 5- and 20-fold (selectivity level G))
25 | CC1(C)[C@@H](Nc2nc(NCCC3C(=O)Nc4ccc(F)cc43)ncc2C#N)CCC[C@@H]1O (stereo partly drawn) [Cmpd 313] | 6.10 to 7.00 | F (selectivity of between 20- and 100-fold (selectivity level F))
26 | CC1(C)[C@@H](O)C[C@H]1Nc1nc(NCCC2CNc3cc(Cl)ccc32)ncc1C#N (stereo partly drawn) [Cmpd 263] | 6.10 to 7.00 | G (selectivity between 5- and 20-fold (selectivity level G))
27 | COCc1noc(CCNc2ncc(C#N)c(N[C@@H]3CC(O)C3(C)C)n2)n1 (stereo partly drawn) [Cmpd 236] | 5.00 to 5.70 | H (selectivity level of 5-fold or less (selectivity level H))
28 | C[C@]1(O)CC2(C[C@H](Nc3nc(NCCC4C(=O)Nc5ccccc54)ncc3C#N)C2)C1 (stereo partly drawn) [Cmpd 301] | 6.10 to 7.00 | F (selectivity of between 20- and 100-fold (selectivity level F))
29 | CC1(C)[C@@H](O)C[C@H]1Nc1nc(NCCc2cn[nH]c2)ncc1C#N [Cmpd 244] | 6.10 to 7.00 | G (selectivity between 5- and 20-fold (selectivity level G))
30 | CC1(C)C[C@H](Nc2nc(NCCc3c[nH]c4ccccc34)ncc2C#N)CC[C@@H]1O [Cmpd 203] | > 7.00 | F (selectivity of between 20- and 100-fold (selectivity level F))
31 | CNC(=O)[C@H]1C[C@@H](Nc2nc(NCCc3c[nH]c4ccccc34)ncc2C#N)C1 [Cmpd 289] | 5.70 to 6.10 | G (selectivity between 5- and 20-fold (selectivity level G))
32 | CC1(C)[C@H](O)CCC[C@@H]1Nc1nc(NCCC2C(=O)Nc3ccccc32)ncc1C#N (stereo partly drawn) [Cmpd 307] | 6.10 to 7.00 | G (selectivity between 5- and 20-fold (selectivity level G))
33 | Cc1ccc(CCNc2ncc(C#N)c(N[C@@H]3CC(O)C3(C)C)n2)o1 (stereo partly drawn) [Cmpd 232] | 6.10 to 7.00 | F (selectivity of between 20- and 100-fold (selectivity level F))
34 | Cc1cc2ccccc2n1CCNc1ncc(C#N)c(N[C@@H]2CC[C@H](O)C(C)(C)C2)n1 [Cmpd 206] | 6.10 to 7.00 | F (selectivity of between 20- and 100-fold (selectivity level F))
35 | CNS(=O)(=O)Cc1ccc2[nH]cc(CCNc3ncc(C#N)c(N[C@@H]4C[C@H](O)C4(C)C)n3)c2c1 [Cmpd 266] | 5.00 to 5.70 | H (selectivity level of 5-fold or less (selectivity level H))
36 | CC1(C)[C@@H](O)CCC[C@H]1Nc1nc(NCCC2C(=O)Nc3ccccc32)ncc1C#N (stereo partly drawn) [Cmpd 308] | 6.10 to 7.00 | H (selectivity level of 5-fold or less (selectivity level H))
